These results are taken from patent US20180318383A1, “PEPTIDE HAVING NEURONAL LOSS PREVENTION AND REGENERATION EFFECTS, AND COMPOSITION CONTAINING SAME” (GEMVAX & KAEL CO., LTD., priority 2015, published 2018).

In data set [1] the test system is GFAP. The experiment in a line: GFAP expression in 3XTg-AD mice (western blotting). The format is in vivo. The settings on record: hippocampus and whole brain; s.c. three times a week for two months; vs control and Donepezil, same amount. As to the method: To test the efficacy of PEP1 on AD, AD transgenic mice (3XTg-AD) were purchased from Jackson Laboratory. Genetic characteristics of the transgenic mice are as follows: B6; 129-Psen1tm1Mpm Tg(APPSwe, tauP301L)1Lfa/Mmjax. […] One week after mice were confirmed as pregnant, new mice were delivered and weaned for 3 weeks. Two weeks later, mature mice were obtained.
During the preliminary breeding and the entire period of the experiment, a temperature was maintained at 23±2° C. and a relative humidity was maintained at 60±10%, and then the mice were raised under a 12-hour dark/light cycle. Experimental animals were divided into five groups, and each group included 10 animals. The divided experimental groups are as follows. […]
The PEP1, physiological saline, donepezil and scramble peptide were subcutaneously injected at each concentration three times a week for two months from the age of 12 months, and then two months after the injection, cognitive/memory behavior tests (passive avoidance test and Y maze test) were performed to examine a degree of improvement in cognitive function and memory function. After the brain was extracted to separate the hippocampus, the amounts of amyloid beta in the hippocampus and the whole brain, and the amounts of an amyloid beta oligomer and NFT generated by tau hyperphosphorylation were determined by western blotting and immunostaining. […]
(In western blotting, separated proteins are transferred to a membrane and probed.)

The nature of data set [2]: Cell-free ROS production (DHBA level by HPLC). The settings on record: 20 μM Aβ25-35 and PEP1 0, 1, 10, 50 μM. The method, then:
To investigate how Aβ25-30 and PEP1 influenced ROS, a DHBA level was measured and observed by a cell-free method. This method was carried out by observing the DHBA level in a tube containing 20 μM Aβ25-30 and each concentration of PEP1 (0, 1, 10 or 50 μM) through HPLC.

For data set [3] the following is noted: numerous clinical trials targeting various diseases; cited from earlier work.
Data set [4] relates to NSCs. The experiment in a line: Oxidative mitochondrial DNA damage (8-OHdG ELISA). The data set is classed as cell-based, rat. The settings on record: 20 μM Aβ25-35 + PEP1. As to the method: The oxidative DNA damage in the mitochondria was observed using an 8-OHdG ELISA kit. The mitochondria DNA was obtained using a genomic DNA isolation kit. 8-OHdG monoclonal antibodies were added to samples and a control group, and then corresponding HRP-attached secondary antibodies were added thereto. The samples were quantified using 8-OHdG and observed by measuring absorbance at 450 nm.
For orientation: In an ELISA, binding on a coated surface is turned into a signal by an enzyme label.

In data set [5] the test system is NSCs. The experiment in a line: NSC differentiation in bFGF-free N2 medium (immunostaining). The data set is classed as cell-based, rat. The settings on record: Aβ25-35 increased GFAP-positive and decreased NeuN-positive cells. The method, then: NSC differentiation was induced by changing the cell culture medium to a bFGF (10 ng/ml)-free N2 medium, and the medium was exchanged daily.
(§1) Immunostaining was carried out to confirm intracellular expression and locations. For immunostaining, the following antibodies were used: Ki67 (1:100 Abcam), rabbit anti-doublecortin (1 mg/mL; Abcam), rabbit anti-glial fibrillary acidic protein (GFAP) (1:5000; Abcam), rabbit anti-Tuj1 (1 mg/mL; Abcam), mouse anti-GalC (1 mg/mL; Millipore), and rabbit anti-HMGB1 (1:100; Cell Signaling Technology).
However, in a large number of GFAP-positive cells and NeuN-positive cells, such immune responses were increased after differentiation.

In data set [6] the test system is NSCs. The experiment in a line: Western blotting and immunostaining of intracellular proteins in NSCs. The format is cell-based, rat.
Excerpt: For western blotting, the following antibodies were used: Ki67 (1:200 Abcam), P85a (1:1000, Millipore), pAKT (ser 473, 1:500, Cell Signaling Technology), GSK-3b (ser 9, 1:1000. Santa Cruz Biotechnology), HSTF-1 (1:1000, Santa Cruz Biotechnology), anti-B cell lymphoma-2 (1:1000, Cell Signaling Technology), HMGB-1 (1:500, Cell Signaling Technology), Bax (1:1000, Cell Signaling Technology), Cytosolic cytochrome C (1:200, Cell Signaling Technology), Cleaved caspase 3 (Asp175, 1: 1000, Cell Signaling Technology), c-Myc (1: 1000, Cell Signaling Technology), GFP (1: 1000, Cell Signaling Technology), hTERT (1:500, Santa Cruz Biotechnology), and rTERT (1:500, Santa Cruz Biotechnology).
To confirm an intracellular signaling system, western blotting was performed after 48-hour treatment.
To obtain the mitochondria and a cytoplasmic protein, mitochondria/intracellular protein isolation kits were used (Abcam). All blots were observed using an ECL solution, and observed images were analyzed using an analysis program.
as §1
Data was observed using an Olympus fluorescence microscope, and suitable fluorescence was used.

For data set [7], the system named is NSCs. In words: ATP assay. The format is cell-based, rat. The settings on record: 20 μM Aβ25-35 + PEP1. From the text: An ATP concentration was observed using an ATP determination kit and evaluated by an ELISA reader.

Consider “EARPALLTSRLRFIPK (homo sapiens) [PEP1, hTERT-derived peptide consisting of 16 amino acids, telomerase location [611-626]]”, for which, in data set [1], the GFAP entry is given as “reduced”. For the same sequence, in data set [2], the “ROS production under a cell-free condition” value is reported as “did not exhibit a significant influence”. For the same sequence, the “toxicity / side effects” value in data set [3] was “stable in terms of side effects”. The “oxidative mitochondrial DNA damage” value in data set [4] is reported as “effectively decreased”. The “NSC differentiation into GFAP-positive and NeuN-positive cells” value in data set [5] is given as “the opposite effect was observed”. For the same sequence, in data set [6] (20 μM Aβ25-35 + PEP1, 48 hours), the “apoptosis-associated proteins: Bax, cytoplasmic cytochrome C, cleaved caspase-3” value is on record as “significantly decreased”; the “ki67 (protein associated with proliferation ability)” value is recorded as “concentration-dependently increased”; the “proliferation-associated proteins: P85a PI3K, pAKT (Ser 473), phosphorylated GSK3-3b (Ser 9), HSTF-1, cytoplasmic HMGB-1” value is reported as “recovered”. For the same sequence, the “HMGB1 expression in the cytoplasm” value in data set [6] (immunostaining, 20 μM Aβ25-35 + PEP1 co-treatment) is “concentration-dependently recovered”. The ATP level entry in data set [7] is “significantly restored”.
